# What was measured:
# Assay type in all cases: functional
# [1] = system: Mycobacterium tuberculosis; assay: Antimycobacterial activity against Mycobacterium tuberculosis H37Rv by filter paper disc diffusion method
# [2] = system: Mycobacterium tuberculosis; assay: Antimycobacterial activity against Mycobacterium tuberculosis H37Rv ATCC […] by microplate alamar blue assay; settings: 168 h, time 7 day
# [3] = system: Mycobacterium tuberculosis; assay: Antimycobacterial activity against Mycobacterium tuberculosis H37Rv by microplate alamar blue assay
# [4] = system: Mycobacterium tuberculosis; assay: Antimycobacterial activity against Mycobacterium tuberculosis H37Rv incubated for 5 days by microplate alamar blue assay; settings: 120 h, time 5 day
# [5] = system: Mycobacterium tuberculosis; assay: Antimycobacterial activity against Mycobacterium tuberculosis H37Rv by Lowenstein-Jensen method relative to control
# [6] = system: Mycobacterium tuberculosis; assay: Antimycobacterial activity against Mycobacterium tuberculosis H37Ra ATCC 25177 incubated for 7 days by microplate alamar blue assay; settings: H37Ra ATCC 25177, 168 h, time 7 day
# [7] = system: Mycobacterium tuberculosis; assay: Antimycobacterial activity against Mycobacterium tuberculosis H37Rv ATCC27294 measured after 28 days by two-fold serial dilution method; settings: H37Rv ATCC 27294, 672 h, time 28 day
compound,measurement,setting,value
O=C1CSC(c2ccc(Br)cc2)N1C(=O)NCCCn1ncc2ccc([N+](=O)[O-])cc21 (stereo not given),MIC,[1],5.25 µg/mL
O=C1CSC(c2ccc(Cl)cc2)N1C1=NN2C(=CSC2c2ccccc2)S1 (stereo not given),MIC,[2],3.12 µg/mL
Cc1ccc(C2SC=C3SC(N4C(=O)CSC4c4ccc(C)cc4)=NN32)cc1 (stereo not given),MIC,[2],1.6 µg/mL
O=C(O)c1ccc(N2C(=O)CSC2c2ccc(F)cc2)cc1O (stereo not given),MIC,[3],6.25 µg/mL
CN[C@@H]1[C@H](O[C@H]2[C@H](O[C@H]3[C@H](O)[C@@H](O)[C@H](N=C(N)N)[C@@H](O)[C@@H]3N=C(N)N)O[C@@H](C)[C@]2(O)C=O)O[C@@H](CO)[C@H](O)[C@H]1O [STREPTOMYCIN],MIC,[3],6.25 µg/mL
same,MIC,[2],6.25 µg/mL
same,MIC,[4],6.25 µg/mL
O=C(NCCCn1ncc2ccc([N+](=O)[O-])cc21)N1C(=O)/C(=C/c2cccc([N+](=O)[O-])c2)SC1c1cccc([N+](=O)[O-])c1 (stereo not given),MIC,[1],1.75 µg/mL
O=C(NCCCNc1ncc([N+](=O)[O-])s1)N1C(=O)/C(=C/c2ccc([N+](=O)[O-])cc2)SC1c1ccc([N+](=O)[O-])cc1 (stereo not given),MIC,[5],2.5 µg/mL
COc1cc(/C=N/NC(=S)Nc2ccccc2)ccc1OC(=O)/C=C1\SC(=O)NC1=O,MIC,[6],2 µg/mL
COc1ccc(/C=C2\SC(=N)N(c3ncc([N+](=O)[O-])s3)C2=O)cc1,MIC,[7],3.78 µM
CN1CCN(c2n[nH]c(N3C(=O)CSC3c3ccc4c(c3)OCO4)n2)CC1 (stereo not given),MIC,[3],≤ 1 µg/mL
COc1cc(/C=N/NC(=S)Nc2cccc(Cl)c2)ccc1OC(=O)/C=C1\SC(=O)NC1=O,MIC,[6],2 µg/mL
O=C1CSC(c2c(-c3ccccc3)[nH]c3ccccc23)N1c1nc(-c2ccc(Cl)cc2)cs1 (stereo not given),MIC,[4],50 µg/mL
CC[C@@H](CO)NCCN[C@@H](CC)CO [ETHAMBUTOL],MIC,[7],7.64 µM
O=C1/C(=C/c2ccc(O)cc2)SC(=S)N1Cc1nc2ccccc2[nH]1,MIC,[3],6.25 µg/mL
O=C1CSC(c2ccc(Cl)cc2)N1C(=O)NCCCn1ncc2ccc([N+](=O)[O-])cc21 (stereo not given),MIC,[1],4.75 µg/mL
O=C(NCCCNc1ncc([N+](=O)[O-])s1)N1C(=O)/C(=C/c2ccccc2[N+](=O)[O-])SC1c1ccccc1[N+](=O)[O-] (stereo not given),MIC,[5],2.75 µg/mL
O=C1CSC(c2ccccc2)N1C1=NN2C(=CSC2c2ccccc2)S1 (stereo not given),MIC,[2],6.25 µg/mL
O=C(NCCCNc1ncc([N+](=O)[O-])s1)N1C(=O)/C(=C/c2ccccc2Br)SC1c1ccccc1Br (stereo not given),MIC,[5],6.25 µg/mL
COc1cc(/C=N/NC(=S)Nc2ccc(Cl)cc2)ccc1OC(=O)CC1SC(=O)NC1=O (stereo not given),MIC,[6],2 µg/mL
O=C1CSC(c2ccccc2[N+](=O)[O-])N1C(=O)NCCCn1ncc2ccc([N+](=O)[O-])cc21 (stereo not given),MIC,[1],3.75 µg/mL
O=C(NCCCn1ncc2ccc([N+](=O)[O-])cc21)N1C(=O)/C(=C/c2cccc(Br)c2)SC1c1cccc(Br)c1 (stereo not given),MIC,[1],1.25 µg/mL
O=C(NCCCNc1ncc([N+](=O)[O-])s1)N1C(=O)/C(=C/c2ccc(Cl)cc2)SC1c1ccc(Cl)cc1 (stereo not given),MIC,[5],2.5 µg/mL
N=C1S/C(=C\c2cc([N+](=O)[O-])co2)C(=O)N1c1nc2ccc([N+](=O)[O-])cc2s1,MIC,[7],6.81 µM
N=C1S/C(=C\c2cc([N+](=O)[O-])co2)C(=O)N1c1cccc(C(F)(F)F)c1,MIC,[7],4.07 µM
O=C(NCCCn1ncc2ccc([N+](=O)[O-])cc21)N1C(=O)/C(=C/c2ccccc2Br)SC1c1ccccc1Br (stereo not given),MIC,[1],4.25 µg/mL
O=C1CSC(c2ccccc2O)N1C1=NN2C(=CSC2c2ccc(O)cc2)S1 (stereo not given),MIC,[2],3.12 µg/mL
Cc1ccc2oc(=O)cc(C3SCC(=O)N3c3ccccc3)c2c1 (stereo not given),MIC,[3],25 µg/mL
O=C1CSC(c2cccc(Br)c2)N1C(=O)NCCCn1ncc2ccc([N+](=O)[O-])cc21 (stereo not given),MIC,[1],4.5 µg/mL
O=C(NCCCn1ncc2ccc([N+](=O)[O-])cc21)N1C(=O)/C(=C/c2ccccc2Cl)SC1c1ccccc1Cl (stereo not given),MIC,[1],2.25 µg/mL
O=C1CSC(c2ccccc2)N1C1=NN2C(=CSC2c2ccc(O)cc2)S1 (stereo not given),MIC,[2],6.25 µg/mL
O=C1CSC(c2ccccc2)N1C(=O)NCCCn1ncc2ccc([N+](=O)[O-])cc21 (stereo not given),MIC,[1],7.5 µg/mL
COc1ccc(/C=C2\SC(=S)N(c3ccc(N)cc3)C2=O)cc1,MIC,[4],12.5 µg/mL
O=C(CC1SC(=O)NC1=O)Oc1ccc(/C=N/NC(=S)Nc2ccc(Cl)cc2)cc1 (stereo not given),MIC,[6],2 µg/mL
O=C(NCCCn1ncc2ccc([N+](=O)[O-])cc21)N1C(=O)/C(=C/c2ccccc2[N+](=O)[O-])SC1c1ccccc1[N+](=O)[O-] (stereo not given),MIC,[1],2.25 µg/mL
N=C1S/C(=C\c2cc([N+](=O)[O-])co2)C(=O)N1c1ncc([N+](=O)[O-])s1,MIC,[7],7.49 µM
O=C1NC(=S)S/C1=C\c1cccc([N+](=O)[O-])c1,MIC,[4],0.05 µg/mL
N=C1S/C(=C\c2ccccc2F)C(=O)N1c1cccc(C(F)(F)F)c1,MIC,[7],4.25 µM
O=C(NCCCNc1ncc([N+](=O)[O-])s1)N1C(=O)/C(=C/c2ccccc2)SC1c1ccccc1 (stereo not given),MIC,[5],12.5 µg/mL
O=C1NC(=S)S/C1=C\c1ccc[nH]1,MIC,[4],0.2 µg/mL
O=C(NCCCn1ncc2ccc([N+](=O)[O-])cc21)N1C(=O)/C(=C/c2cccc(Cl)c2)SC1c1cccc(Cl)c1 (stereo not given),MIC,[1],1.5 µg/mL
O=C(NCCCNc1ncc([N+](=O)[O-])s1)N1C(=O)/C(=C/c2cccc([N+](=O)[O-])c2)SC1c1cccc([N+](=O)[O-])c1 (stereo not given),MIC,[5],2.5 µg/mL
COc1ccc2oc(=O)cc(C3SCC(=O)N3c3ccc(Cl)cc3)c2c1 (stereo not given),MIC,[3],25 µg/mL
O=C1CSC(c2ccc([N+](=O)[O-])cc2)N1C(=O)NCCCn1ncc2ccc([N+](=O)[O-])cc21 (stereo not given),MIC,[1],4.25 µg/mL

# Source: ChEMBL document CHEMBL4813957, “Antitubercular properties of thiazolidin-4-ones - A review” (Eur J Med Chem, 2021)
